Test results as given in patent publication EP3130594B1, “PHOSPHONATES OF ACETYLENIC BETULIN DERIVATIVES WITH ANTICANCER ACTIVITY, METHOD FOR THEIR PRODUCTION AND THEIR APPLICATION” (Slaski Uniwersytet Medyczny w Katowicach, priority 2015, dated 2017).
Values after ≈ are worked out from the molar mass of the structure shown.

Columns and labels:
Assay in all cases: Cytotoxic activity in vitro, WST1 test
breast cancer T47D = assay type: cell-based, human; details: T47D cells, Neg = no activity in the applied concentration range; for IC50: Homo sapiens, read-out: Cytotoxic activity in vitro as IC50
Method: (§1) The evaluation of cytotoxic activity of the compounds described with Formula 2 was carried out against human cancer cells [brain glioma SNB-19, breast cancer T47D, melanoma C32] using WST1 tests (Table 1).

brain glioma SNB-19 = assay type: cell-based; details: Homo sapiens, SNB-19 cells, read-out: Cytotoxic activity in vitro as IC50
Method: as §1

melanoma C32 = assay type: cell-based; details: Homo sapiens, C32 cells, read-out: Cytotoxic activity in vitro as IC50
Method: as §1

SMILES	Cytotoxic activity in vitro as IC50 (breast cancer T47D)	IC50 (brain glioma SNB-19) [µg/mL]	IC50 (melanoma C32) [µg/mL]	IC50 (breast cancer T47D) [µg/mL]
C#CCOC(=O)OC[C@]12CC[C@@H](/C(C)=C/P(=O)(OCC)OCC)[C@@H]1[C@H]1CC[C@@H]3[C@@]4(C)CC[C@H](OC(=O)OCC#C)C(C)(C)[C@@H]4CC[C@@]3(C)[C@]1(C)CC2 [29-diethoxyphosphoryl-3,28-di(propargyloxycarbonyl)betulin]	Neg	0.5 ± 0.1 (≈ 0.673 µM)	51.7 ± 4.8 (≈ 69.6 µM)	
CCOP(=O)(/C=C(\C)[C@@H]1CC[C@]2(CO)CC[C@]3(C)[C@H](CC[C@@H]4[C@@]5(C)CC[C@H](O)C(C)(C)[C@@H]5CC[C@]43C)[C@@H]12)OCC [trans R = R1 =Et, R2= OH, R3 = CH2OH, E-29-Diethoxyphosphorylbetulin]		5.9 ± 0.4 (≈ 10.2 µM)		6.2 ± 0.5 (≈ 10.7 µM)
CCOP(=O)(/C=C(\C)[C@@H]1CC[C@]2(COC(=O)C#CC3CC3)CC[C@]3(C)[C@H](CC[C@@H]4[C@@]5(C)CC[C@H](O)C(C)(C)[C@@H]5CC[C@]43C)[C@@H]12)OCC [28-cyclopropylpropynoyl-29-diethoxyphosphorylbetulin]		2.2 ± 0.8 (≈ 3.28 µM)	4.7 ± 0.7 (≈ 7.01 µM)	8.2 ± 0.6 (≈ 12.2 µM)
CCOP(=O)(/C=C(\C)[C@@H]1CC[C@]2(COC(=O)C#CC3CC3)CC[C@]3(C)[C@H](CC[C@@H]4[C@@]5(C)CC[C@H](OC(=O)C#CC6CC6)C(C)(C)[C@@H]5CC[C@]43C)[C@@H]12)OCC [3,28-Di(cyclopropylpropynoyl)-29-diethoxyphosphorylbetulin]		40.4 ± 6.8 (≈ 52.9 µM)	9.4 ± 0.2 (≈ 12.3 µM)	79.5 ± 1.9 (≈ 104 µM)
C=C(C)[C@@H]1CC[C@]2(CO)CC[C@]3(C)[C@H](CC[C@@H]4[C@@]5(C)CC[C@H](O)C(C)(C)[C@@H]5CC[C@]43C)[C@@H]12 [Betulin, lup-20(29)-ene-3β,28-diol]		23.5 ± 2 (≈ 53.1 µM)		77.9 ± 4 (≈ 176 µM)
C#CCOC(=O)OC[C@]12CC[C@@H](/C(C)=C/P(=O)(OCC)OCC)[C@@H]1[C@H]1CC[C@@H]3[C@@]4(C)CC[C@H](O)C(C)(C)[C@@H]4CC[C@@]3(C)[C@]1(C)CC2 [29-Diethoxyphosphoryl-28-propargyloxycarbonylbetulin]		24.5 ± 12.6 (≈ 37.1 µM)	5.9 ± 0.3 (≈ 8.93 µM)	49.4 ± 6.1 (≈ 74.7 µM)
C#CC(=O)OC[C@]12CC[C@@H](/C(C)=C/P(=O)(OCC)OCC)[C@@H]1[C@H]1CC[C@@H]3[C@@]4(C)CC[C@H](OC(=O)C#C)C(C)(C)[C@@H]4CC[C@@]3(C)[C@]1(C)CC2 [R=R1=Et, R2=HC≡CC(O)O, R3 = CH2C(O)C≡CH, 29-Diethoxyphosphoryl-3,28-dipropynoylbetulin]		0.6 ± 0.1 (≈ 0.879 µM)		2.8 ± 0.6 (≈ 4.1 µM)
CC#CC(=O)OC[C@]12CC[C@@H](/C(C)=C/P(=O)(OCC)OCC)[C@@H]1[C@H]1CC[C@@H]3[C@@]4(C)CC[C@H](O)C(C)(C)[C@@H]4CC[C@@]3(C)[C@]1(C)CC2 [R = R1 =Et, R2 =HO, R3 =CH2OC(O)C ≡ CCH3, 28-(2-butynoyl)-29-diethoxyphosphorylbetulin]		7.5 ± 0.3 (≈ 11.6 µM)	4.9 ± 0.1 (≈ 7.6 µM)	9.6 ± 0.6 (≈ 14.9 µM)
C#CC(=O)OC[C@]12CC[C@@H](/C(C)=C/P(=O)(OCC)OCC)[C@@H]1[C@H]1CC[C@@H]3[C@@]4(C)CC[C@H](O)C(C)(C)[C@@H]4CC[C@@]3(C)[C@]1(C)CC2 [R = R1 = Et, R2 = HO, R3 =CH2C(O)C≡CH, 29-Diethoxyphosphoryl-28-propynoylbetulin]		0.3 ± 0.1 (≈ 0.476 µM)		0.4 ± 0.1 (≈ 0.634 µM)
CC#CC(=O)OC[C@]12CC[C@@H](/C(C)=C/P(=O)(OCC)OCC)[C@@H]1[C@H]1CC[C@@H]3[C@@]4(C)CC[C@H](OC(=O)C#CC)C(C)(C)[C@@H]4CC[C@@]3(C)[C@]1(C)CC2 [3,28-Di(2-butynoyl)-29-diethoxyphosphorylbetulin]		7.6 ± 1 (≈ 10.7 µM)	4.9 ± 0.3 (≈ 6.89 µM)	13.9 ± 3.4 (≈ 19.6 µM)
C=C(CP(=O)(OCC)OCC)[C@@H]1CC[C@]2(COC(C)=O)CC[C@]3(C)[C@H](CC[C@@H]4[C@@]5(C)CC[C@H](OC(C)=O)C(C)(C)[C@@H]5CC[C@]43C)[C@@H]12 [R = R1 = Et, R2 = AcO, R3 = CH2OAc, 3, 28 - Diacetyl - 30 - diethoxyphosphorylbetulin]		51.9 ± 0.8 (≈ 78.3 µM)		58 ± 3.4 (≈ 87.5 µM)
CCOP(=O)(/C=C(/C)[C@@H]1CC[C@]2(CO)CC[C@]3(C)[C@H](CC[C@@H]4[C@@]5(C)CC[C@H](O)C(C)(C)[C@@H]5CC[C@]43C)[C@@H]12)OCC [cis R = R1 = Et, R2 =OH, R3 = CH2OH, Z - 29 - Diethoxyphosphorylbetulin]		4.8 ± 0.1 (≈ 8.29 µM)		0.9 ± 0.1 (≈ 1.55 µM)
